US9499535B2, “Kinase inhibitors” (ORIGENIS GMBH, priority 2011, dated 2016)

Columns and labels:
LRRK2 = LRRK2 (Homo sapiens, UniProt Q5S007); assay: LRRK2 assay (LanthaScreen Eu Kinase Binding Assay); conditions: 5 nM LRRK2, 10 nM tracer 236, RT 1 h; read-out: LRRK2 Activites: IC50
From the text: Binding of the tracer to the kinase is detected using a europium-labeled anti-tag antibody, which binds to the kinase of interest. […] Binding of an inhibitor to the kinase competes for binding with the tracer, resulting in a loss of FRET. The fluorescence intensity ratio is directly proportional to the amount of peptide phosphorylation.
The inhibitor concentration was plotted versus the emission ratio to determine the IC50 using XLFit 5.0 (IDBS, Guildford) to fit to a sigmoidal dose response curve with a variable slope.

SYK kinase = target: T1, SYK kinase (Homo sapiens, UniProt P43405); assay: SYK assay (OMNIA Kinase Assay, Invitrogen); type: biochemical; conditions: apparent Ki calculated from the IC50 using the Cheng-Prusoff equation; 1 mM ATP, 10 μM Peptide Substrate; read-out: SYK Activities: Ki
T1 construct: purchased Invitrogen, Carlsbad
Experimental: In the assay OMNIA® KINASE ASSAY by Invitrogen Corporation (Carlsbad) the effect of invention of a compound on the phosphorylation is determined by measurement of fluorescence intensity of a chelation-enhanced fluorophore called SOX. Upon phosphorylation of the peptide by the kinase of interest, Mg2+ is chelated to form a bridge between the SOX moiety and the phosphate group that is transferred to the specific tyrosine on the peptide. The fluorescence intensity is directly proportional to the amount of peptide phosphorylation.
To the wells of an 384 well small volume plate (Greiner, Frickenhausen) are added (i) the compound under test in 5% DMSO/distilled water (2 μl), (ii) 16 μl of the master mix containing ATP, DTT, Kinase Reaction Buffer, Omina Peptide Substrate Tyr 7 resulting in a final concentration of 1 mM ATP, 0.2 mM DTT and 10 μM Peptide Substrate.
The Master Mix and the assay plate was incubated to reaction temperature before the measurement (30° C.). The reaction was started with addition of (iii) 2 μl 4 μg/ml SYK kinase (Invitrogen, Carlsbad). During measurement fluorescence intensitiy readings were collected using a TECAN M1000 at a wavelength of λex 360/λem 485 nm every 30 s for 30 minutes. The reaction velocity was plotted versus the inhibitor concentration to determine the IC50 using XLFit 5.0 (IDBS, Guildford) to fit to a sigmoidal dose response curve, and the apparent Ki values were calculated from the IC50 using the Cheng-Prusoff equation (Cheng, Y.; Prusoff, W. H. Biochem. Pharmacol. 22, 3099-3108, 1973).

Sequence of LRRK2 (Q5S007 970-2527 limits assumed): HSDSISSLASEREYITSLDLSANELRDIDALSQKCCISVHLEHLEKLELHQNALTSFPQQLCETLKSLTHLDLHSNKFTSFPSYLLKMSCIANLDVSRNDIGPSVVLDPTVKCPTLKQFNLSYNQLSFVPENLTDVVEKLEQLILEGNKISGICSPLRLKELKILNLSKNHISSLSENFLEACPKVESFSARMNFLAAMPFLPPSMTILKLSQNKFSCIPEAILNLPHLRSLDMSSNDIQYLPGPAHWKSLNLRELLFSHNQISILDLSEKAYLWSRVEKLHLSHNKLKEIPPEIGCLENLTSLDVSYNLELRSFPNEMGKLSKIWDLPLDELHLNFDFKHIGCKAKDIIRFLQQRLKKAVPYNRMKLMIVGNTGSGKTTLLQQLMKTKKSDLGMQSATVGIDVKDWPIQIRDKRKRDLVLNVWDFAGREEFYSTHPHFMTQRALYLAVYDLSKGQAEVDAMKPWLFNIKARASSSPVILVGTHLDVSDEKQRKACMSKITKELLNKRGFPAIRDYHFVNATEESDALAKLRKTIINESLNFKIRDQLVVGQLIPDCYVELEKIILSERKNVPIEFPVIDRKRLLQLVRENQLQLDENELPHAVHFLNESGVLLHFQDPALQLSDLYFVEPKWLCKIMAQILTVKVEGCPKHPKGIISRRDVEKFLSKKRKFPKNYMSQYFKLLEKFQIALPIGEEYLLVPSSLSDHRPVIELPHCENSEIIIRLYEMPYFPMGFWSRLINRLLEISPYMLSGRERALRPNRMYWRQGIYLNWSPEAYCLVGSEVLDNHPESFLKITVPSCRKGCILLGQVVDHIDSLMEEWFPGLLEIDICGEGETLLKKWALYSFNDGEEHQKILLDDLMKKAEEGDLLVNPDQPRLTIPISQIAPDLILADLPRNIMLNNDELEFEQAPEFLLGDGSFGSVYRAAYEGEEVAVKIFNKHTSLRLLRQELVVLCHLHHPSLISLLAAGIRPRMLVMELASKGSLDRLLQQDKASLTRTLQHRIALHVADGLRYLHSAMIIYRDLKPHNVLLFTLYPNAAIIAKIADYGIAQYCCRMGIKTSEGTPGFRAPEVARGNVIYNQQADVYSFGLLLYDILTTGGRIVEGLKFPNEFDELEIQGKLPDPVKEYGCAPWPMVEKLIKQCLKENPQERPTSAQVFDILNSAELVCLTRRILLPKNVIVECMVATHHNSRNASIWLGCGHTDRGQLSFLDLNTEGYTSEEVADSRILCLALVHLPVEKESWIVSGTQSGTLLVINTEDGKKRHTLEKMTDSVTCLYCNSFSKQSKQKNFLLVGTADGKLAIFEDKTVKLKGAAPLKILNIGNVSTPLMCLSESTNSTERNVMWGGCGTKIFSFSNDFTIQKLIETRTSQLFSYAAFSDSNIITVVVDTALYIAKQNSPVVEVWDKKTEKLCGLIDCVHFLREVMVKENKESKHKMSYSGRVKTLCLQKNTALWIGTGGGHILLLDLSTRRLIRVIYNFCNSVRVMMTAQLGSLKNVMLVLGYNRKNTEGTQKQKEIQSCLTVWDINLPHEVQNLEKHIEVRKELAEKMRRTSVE

IC50 (LRRK2) | Ki (SYK kinase) | Structure (SMILES)
10 to 100 nM | 10 to 100 nM | COc1ccc2nc(Nc3ccc4c[nH]nc4c3)c3n[nH]cc3c2c1 [Example #74, (1H-Indazol-6-yl)-(8-methoxy-2H-pyrazolo[3,4-c]quinolin-4-yl)-amine]
< 10 nM | 10 to 100 nM | COc1ccc2nc(Nc3cc(-c4ccccc4)n[nH]3)c3n[nH]cc3c2c1 [Example #77, (8-Methoxy-2H-pyrazolo[3,4-c]quinolin-4-yl)-(5-phenyl-2H-pyrazol-3-yl)-amine]
100 to 1000 nM | 100 to 1000 nM | COc1ccc2nc(Nc3cccc(N4CCOCC4)c3)c3[nH]ncc3c2c1 [Example #81, (8-Methoxy-3H-pyrazolo[3,4-c]quinolin-4-yl)-(3-morpholin-4-yl-phenyl)-amine]
< 10 nM | < 10 nM | COc1ccc2nc(Nc3cc(C4CCC4)n[nH]3)c3n[nH]cc3c2c1 [Example #85, (5-Cyclobutyl-2H-pyrazol-3-yl)-(8-methoxy-2H-pyrazolo[3,4-c]quinolin-4-yl)-amine]
< 10 nM | 10 to 100 nM | COc1ccc2nc(Nc3ccc4c(c3)NCC(C)(C)S4)c3n[nH]cc3c2c1 [Example #88, (2,2-Dimethyl-3,4-dihydro-2H-benzo[1,4]thiazin-6-yl)-(8-methoxy-2H-pyrazolo[3,4-c]quinolin-4-yl)-amine]
100 to 1000 nM | 10 to 100 nM | CCOc1cc2nc(Nc3ccc4cn[nH]c4c3)c3n[nH]cc3c2cc1OCC [Example #92, (7,8-Diethoxy-2H-pyrazolo[3,4-c]quinolin-4-yl)-(1H-indazol-6-yl)-amine]
< 10 nM | < 10 nM | COc1ccc2nc(Nc3ccc4c(c3)NC(=O)CC4)c3n[nH]cc3c2c1 [Example #93, 7-(8-Methoxy-2H-pyrazolo[3,4-c]quinolin-4-ylamino)-3,4-dihydro-1H-quinolin-2-one]
10 to 100 nM | 10 to 100 nM | COc1ccc2nc(Nc3ccc4c(c3)NC(=O)CS4)c3[nH]ncc3c2c1 [Example #94, 6-(8-Methoxy-3H-pyrazolo[3,4-c]quinolin-4-ylamino)-4H-benzo[1,4]thiazin-3-one]
10 to 100 nM | 10 to 100 nM | COc1ccc2nc(Nc3cc(C(C)(C)C)[nH]n3)c3[nH]ncc3c2c1 [Example #95, (5-tert-Butyl-1H-pyrazol-3-yl)-(8-methoxy-3H-pyrazolo[3,4-c]quinolin-4-yl)-amine]
10 to 100 nM | 10 to 100 nM | COc1ccc2nc(Nc3cc(C)n[nH]3)c3[nH]ncc3c2c1 [Example #96, (8-Methoxy-3H-pyrazolo[3,4-c]quinolin-4-yl)-(5-methyl-2H-pyrazol-3-yl)-amine]
100 to 1000 nM | – | COc1ccc2nc(Nc3ccc(C(C)=O)cc3)c3n[nH]cc3c2c1 [Example #145, 1-[4-(8-Methoxy-2H-pyrazolo[3,4-c]quinolin-4-ylamino)-phenyl]-ethanone]
100 to 1000 nM | – | COc1ccc(CCNC(=O)Cc2ccc(Nc3nc4ccc(OC)cc4c4c[nH]nc34)cc2)cc1 [Example #215]
– | 100 to 1000 nM | COc1ccc2nc(Nc3cccc(-n4nccn4)c3)c3n[nH]cc3c2c1 [Example #347, N-(3-(2H-1,2,3-triazol-2-yl)phenyl)-8-methoxy-2H-pyrazolo[3,4-c]quinolin-4-amine]
– | < 10 nM | COc1ccc2nc(Nc3ccc(NC(=O)c4ccc(F)cc4)cc3)c3n[nH]cc3c2c1 [Example #358, 4-fluoro-N-(4-((8-methoxy-2H-pyrazolo[3,4-c]quinolin-4-yl)amino)phenyl)benzamide]
– | < 10 nM | COc1ccc2nc(Nc3ccc(N4CCOCC4)c([N+](=O)[O-])c3)c3n[nH]cc3c2c1 [Example #359, 8-methoxy-N-(4-morpholino-3-nitrophenyl)-2H-pyrazolo[3,4-c]quinolin-4-amine]
100 to 1000 nM | – | Fc1cc(Nc2nc3cccc(F)c3c3cn[nH]c23)ccc1N1CCOCC1 [Example #364, 9-fluoro-N-(3-fluoro-4-morpholinophenyl)-3H-pyrazolo[3,4-c]quinolin-4-amine]

The next lines start with the compound.

Structure (SMILES) | IC50 (LRRK2) | Ki (SYK kinase)
COc1cc(Nc2nc3ccccc3c3c[nH]nc23)cc(OC)c1OC [Example #3, (2H-Pyrazolo[3,4-c]quinolin-4-yl)-(3,4,5-trimethoxy-phenyl)-amine] | 100 to 1000 nM | 100 to 1000 nM
COc1ccc2nc(Nc3ccc4c[nH]nc4c3)c3n[nH]cc3c2c1 [Example #15, (2H-Indazol-6-yl)-(8-methoxy-2H-pyrazolo[3,4-c]quinolin-4-yl)-amine] | 100 to 1000 nM | –
COc1ccc2nc(Nc3cccc(C)c3)c3n[nH]cc3c2c1 [Example #37, (8-Methoxy-2H-pyrazolo[3,4-c]quinolin-4-yl)-m-tolyl-amine] | 100 to 1000 nM | 100 to 1000 nM
COc1ccc2nc(Nc3ccc4cnn(C)c4c3)c3n[nH]cc3c2c1 [Example #40, (8-Methoxy-2H-pyrazolo[3,4-c]quinolin-4-yl)-(1-methyl-1H-indazol-6-yl)-amine] | 100 to 1000 nM | < 10 nM
Brc1ccc2nc(Nc3ccc4[nH]ncc4c3)c3n[nH]cc3c2c1 [Example #45, (8-Bromo-2H-pyrazolo[3,4-c]quinolin-4-yl)-(1H-indazol-5-yl)-amine] | 100 to 1000 nM | 10 to 100 nM
O=C1COc2ccc(Nc3nc4ccccc4c4cn[nH]c34)cc2N1 [Example #46, 6-(3H-Pyrazolo[3,4-c]quinolin-4-ylamino)-4H-benzo[1,4]oxazin-3-one] | 100 to 1000 nM | 10 to 100 nM
COc1ccc2nc(Nc3ccc4c(c3)NC(=O)CO4)c3[nH]ncc3c2c1 [Example #47, 6-(8-Methoxy-3H-pyrazolo[3,4-c]quinolin-4-ylamino)-4H-benzo[1,4]oxazin-3-one] | 10 to 100 nM | –
COc1ccc2nc(Nc3ccc4[nH]nnc4c3)c3n[nH]cc3c2c1 [Example #48, (1H-Benzotriazol-5-yl)-(8-methoxy-2H-pyrazolo[3,4-c]quinolin-4-yl)-amine] | 100 to 1000 nM | –
COc1ccc2nc(Nc3ccc(N4CCCCC4)cc3)c3n[nH]cc3c2c1 [Example #50, (8-Methoxy-2H-pyrazolo[3,4-c]quinolin-4-yl)-(4-piperidin-1-yl-phenyl)-amine] | 100 to 1000 nM | 10 to 100 nM
COc1ccc2nc(Nc3ccc(N(C)C)cc3)c3n[nH]cc3c2c1 [Example #51, N-(8-Methoxy-2H-pyrazolo[3,4-c]quinolin-4-yl)-N′,N′-dimethyl-benzene-1,4-diamine] | 10 to 100 nM | 10 to 100 nM
COc1ccc2nc(Nc3ccc(N4CCOCC4)cc3)c3n[nH]cc3c2c1 [Example #54, (8-Methoxy-2H-pyrazolo[3,4-c]quinolin-4-yl)-(4-morpholin-4-yl-phenyl)-amine] | 10 to 100 nM | 10 to 100 nM
COc1ccc2nc(Nc3ccc(C#N)cc3)c3n[nH]cc3c2c1 [Example #59, 4-(8-Methoxy-2H-pyrazolo[3,4-c]quinolin-4-ylamino)-benzonitrile] | 100 to 1000 nM | 100 to 1000 nM
COc1ccc(Nc2nc3ccc(OC)cc3c3c[nH]nc23)cc1 [Example #61, (4-Methoxy-phenyl)-(8-methoxy-2H-pyrazolo[3,4-c]quinolin-4-yl)-amine] | 100 to 1000 nM | 10 to 100 nM
COc1ccc2nc(Nc3cc[nH]n3)c3n[nH]cc3c2c1 [Example #66, (8-Methoxy-2H-pyrazolo[3,4-c]quinolin-4-yl)-(1H-pyrazol-3-yl)-amine] | 100 to 1000 nM | 10 to 100 nM
